Patent US11147272B2, “Pyridone compounds and agricultural and horticultural fungicides comprising the same as active ingredients” (MITSUI CHEMICALS AGRO, INC., priority 2017, dated 2021)

Columns and labels:
Plasmopara viticola = experiment: Test Example G: Downy mildew on vine; details: for Test G control value: 7 to 10 days after inoculation; for pest or weed control at 250 ppm: Plasmopara viticola, topical, read-out: Test G control value class; for Test G control value class: Downy mildew on vine (Neomuscat), 2.5 ml/pot, assessed 7 to 10 days after inoculation
Magnaporthe grisea = experiment: whole plant or invertebrate; assay type: in vivo; details: for pest or weed control at 250 µg/mL: Pyricularia oryzae, in Oryza sativa, read-out: Test A control value class; for Test A control value class: class of control value
[1] = tested on: Colletotrichum orbiculare; experiment: Test Example H: Anthracnose on cucumber; details: for Test H control value: 6 to 10 days after inoculation; for pest or weed control at 250 ppm: Colletotrichum orbiculare, in Cucumis sativus, topical, read-out: Test H control value class; for Test H control value class: Anthracnose on cucumber (Sagami Hanjiro), 2.5 ml/pot, assessed 6 to 10 days after inoculation
Puccinia recondita = experiment: Test Example E: Brown rust on wheat; assay type: in vivo; details: for pest or weed control at 250 µg/mL: Puccinia recondita, topical, read-out: Test E control value class; for pest or weed control at 250 µg/mL / Test E control value class: class of control value
Phytophthora infestans = experiment: whole plant or invertebrate; assay type: in vivo; details: for pest or weed control at 250 µg/mL: Phytophthora infestans, in Solanum lycopersicum, topical, read-out: Test F control value class; for Test F control value class: class of control value
Botrytis cinerea = experiment: Test Example B: Gray mold on tomato; details: for pest or weed control at 250 µg/mL: Botrytis cinerea, in Solanum lycopersicum, topical, read-out: Test B control value class; for Test B control value class: class of control value
[2] = tested on: Blumeria graminis f. sp. hordei; experiment: Test Example D: Powdery mildew on barley; details: for pest or weed control at 250 µg/mL: Blumeria graminis, in Hordeum vulgare, topical, read-out: Test D control value class; for Test D control value class: class of control value
Alternaia brassicicola = experiment: Test Example C: Alternaria sooty spot on cabbage; assay type: in vivo; details: for pest or weed control at 250 µg/mL: Brassica oleracea, topical, read-out: Test C control value class; for pest or weed control at 250 µg/mL / Test C control value class: class of control value
Source text: Seeds of a test plant (cabbage variety: Shikidori) were planted and cultivated until the cotyledons extended.
<Control Value> Control value=100{1−(n/3)}

[3] = Downy mildew on vine, 250 ppm spray
[4] = Blast on rice, control value class
[5] = Anthracnose on cucumber, 250 ppm spray
[6] = Brown rust on wheat, control value class
[7] = Late blight on tomato, control value class
[8] = Gray mold on tomato, control value class
[9] = Powdery mildew on barley, control value class
[10] = Alternaria sooty spot on cabbage, control value class
[11] = Alternaria sooty spot on cabbage
[12] = 250 ppm drug solution sprayed on test plant

CC(C)Cc1cc(Br)c(=O)n(CC(F)F)c1-c1c(F)cc(F)cc1F [compound 305]
H (more than 50% control value): Test A control value (Magnaporthe grisea; [4]) | Test H control value [1, 5] | Test E control value (Puccinia recondita; [6]) | Test B control value (Botrytis cinerea; [8]) | Test D control value [2, 9] | Test C control value (Alternaia brassicicola; [10])
L (50% or less control value): Test G control value (Plasmopara viticola; [3]) | Test F control value (Phytophthora infestans; [7])

CCC(=O)c1cc(Cl)c(=O)n(CC)c1-c1c(F)cccc1F [Compound No. 26, 3-chloro-6-(2,6-difluorophenyl)-1-ethyl-5-propionylpyridin-2(1H)-one]
> 50%: pest or weed control at 250 ppm (Plasmopara viticola) | pest or weed control at 250 µg/mL (Magnaporthe grisea) | pest or weed control at 250 ppm [1] | pest or weed control at 250 µg/mL (Puccinia recondita; Brown rust on wheat) | pest or weed control at 250 µg/mL (Botrytis cinerea) | pest or weed control at 250 µg/mL [2] | pest or weed control at 250 µg/mL (Alternaia brassicicola; [11])
< 50%: pest or weed control at 250 µg/mL (Phytophthora infestans)

CCc1cc(Br)c(=O)n(C)c1-c1ccc(F)cc1C [compound 363]
H (more than 50% control value): Test G control value (Plasmopara viticola; [3]) | Test A control value (Magnaporthe grisea; [4]) | Test E control value (Puccinia recondita; [6]) | Test B control value (Botrytis cinerea; [8])
L (50% or less control value): Test H control value [1, 5] | Test F control value (Phytophthora infestans; [7]) | Test D control value [2, 9] | Test C control value (Alternaia brassicicola; [10])

CCn1c(-c2ccc(Br)cc2F)c(CC(C)C)ccc1=O [compound 136]
L (50% or less control value): Test H control value class ([1]; 250 ppm spray) | Test F control value class (Phytophthora infestans; Late blight on tomato) | Test C control value class (Alternaia brassicicola; [11])
H (more than 50% control value): Test G control value class (Plasmopara viticola; 250 ppm spray) | Test A control value class (Magnaporthe grisea; Blast on rice) | Test E control value class (Puccinia recondita; Brown rust on wheat) | Test B control value class (Botrytis cinerea; Gray mold on tomato) | Test D control value class ([2]; Powdery mildew on barley)

CCn1c(-c2c(F)cccc2F)c(C(OC)C(C)C)cc(Cl)c1=O (centres unmarked) [compound 63]
H (more than 50% control value): Test G control value class (Plasmopara viticola; 250 ppm spray) | Test A control value class (Magnaporthe grisea; Blast on rice) | Test H control value class ([1]; 250 ppm spray) | Test E control value class (Puccinia recondita; Brown rust on wheat) | Test B control value class (Botrytis cinerea; Gray mold on tomato) | Test D control value class ([2]; Powdery mildew on barley) | Test C control value class (Alternaia brassicicola; [11])
L (50% or less control value): Test F control value class (Phytophthora infestans; Late blight on tomato)

CCn1c(-c2ccc(F)cc2Cl)c(CC(C)C)cc(Br)c1=O [compound 100]
H (more than 50% control value): Test G control value class (Plasmopara viticola; 250 ppm spray) | Test A control value class (Magnaporthe grisea; Blast on rice) | Test H control value class ([1]; 250 ppm spray) | Test E control value class (Puccinia recondita; Brown rust on wheat) | Test B control value class (Botrytis cinerea; Gray mold on tomato) | Test D control value class ([2]; Powdery mildew on barley) | Test C control value class (Alternaia brassicicola; [11])
L (50% or less control value): Test F control value class (Phytophthora infestans; Late blight on tomato)

CCCCCCCCCc1cc(Br)c(=O)n(CC)c1-c1ccc(F)cc1Cl [compound 275]
L (50% or less control value): Test G control value (Plasmopara viticola; [3]) | Test A control value (Magnaporthe grisea; [4]) | Test H control value [1, 5] | Test E control value (Puccinia recondita; [6]) | Test F control value (Phytophthora infestans; [7]) | Test B control value (Botrytis cinerea; [8]) | Test C control value (Alternaia brassicicola; [10])
H (more than 50% control value): Test D control value [2, 9]

CCn1c(-c2c(F)cc(F)cc2F)c(C(OC)C(C)(C)C)cc(Cl)c1=O (racemic) [compound 168]
L (50% or less control value): Test G control value class (Plasmopara viticola; 250 ppm spray) | Test H control value class ([1]; 250 ppm spray) | Test F control value class (Phytophthora infestans; Late blight on tomato)
H (more than 50% control value): Test A control value class (Magnaporthe grisea; Blast on rice) | Test E control value class (Puccinia recondita; Brown rust on wheat) | Test B control value class (Botrytis cinerea; Gray mold on tomato) | Test D control value class ([2]; Powdery mildew on barley) | Test C control value class (Alternaia brassicicola; [11])

CCn1c(-c2c(F)cccc2F)c(C=O)ccc1=O [compound 510]
L (50% or less control value): Test G control value (Plasmopara viticola; 250 ppm drug solution sprayed (2.5 ml/pot), grape Neomuscat) | Test H control value ([1]; 250 ppm drug solution sprayed (2.5 ml/pot), cucumber Sagami Hanjiro) | Test E control value (Puccinia recondita; [12]) | Test F control value (Phytophthora infestans; [12]) | Test B control value (Botrytis cinerea; [12]) | Test D control value [2, 12] | Test C control value (Alternaia brassicicola; [12])
H (more than 50% control value): Test A control value (Magnaporthe grisea; [12])

CCn1c(-c2c(F)cc(F)cc2F)c(C(C)C)ccc1=O [Compound No. 7, 1-ethyl-5-isopropyl-6-(2,4,6-trifluorophenyl)pyridin-2(1H)-one]
< 50%: pest or weed control at 250 µg/mL (Phytophthora infestans)
> 50%: pest or weed control at 250 ppm (Plasmopara viticola) | pest or weed control at 250 µg/mL (Magnaporthe grisea) | pest or weed control at 250 ppm [1] | pest or weed control at 250 µg/mL (Puccinia recondita; Brown rust on wheat) | pest or weed control at 250 µg/mL (Botrytis cinerea) | pest or weed control at 250 µg/mL [2] | pest or weed control at 250 µg/mL (Alternaia brassicicola; [11])

CCn1c(-c2c(F)cc(F)cc2F)c(C(C)(F)C(C)C)cc(Cl)c1=O (racemic) [compound 166]
H (more than 50% control value): Test G control value class (Plasmopara viticola; 250 ppm spray) | Test A control value class (Magnaporthe grisea; Blast on rice) | Test H control value class ([1]; 250 ppm spray) | Test E control value class (Puccinia recondita; Brown rust on wheat) | Test F control value class (Phytophthora infestans; Late blight on tomato) | Test B control value class (Botrytis cinerea; Gray mold on tomato) | Test D control value class ([2]; Powdery mildew on barley) | Test C control value class (Alternaia brassicicola; [11])

CCn1c(-c2c(F)cc(F)cc2F)c(CN(C)OC)cc(Cl)c1=O [Compound No. 89, 3-chloro-1-ethyl-5-((methoxy(methyl)amino)methyl)-6-(2,4,6-trifluorophenyl)pyridin-2(1H)-one]
> 50%: pest or weed control at 250 µg/mL (Magnaporthe grisea) | pest or weed control at 250 ppm [1] | pest or weed control at 250 µg/mL (Puccinia recondita; Brown rust on wheat) | pest or weed control at 250 µg/mL (Botrytis cinerea) | pest or weed control at 250 µg/mL [2] | pest or weed control at 250 µg/mL (Alternaia brassicicola; [11])
< 50%: pest or weed control at 250 ppm (Plasmopara viticola) | pest or weed control at 250 µg/mL (Phytophthora infestans)

CCn1c(-c2c(F)cc(OC)cc2F)c(CN(C)C)cc(Cl)c1=O [compound 92]
H (more than 50% control value): Test A control value class (Magnaporthe grisea; Blast on rice) | Test H control value class ([1]; 250 ppm spray) | Test E control value class (Puccinia recondita; Brown rust on wheat) | Test C control value class (Alternaia brassicicola; [11])
L (50% or less control value): Test G control value class (Plasmopara viticola; 250 ppm spray) | Test F control value class (Phytophthora infestans; Late blight on tomato) | Test B control value class (Botrytis cinerea; Gray mold on tomato) | Test D control value class ([2]; Powdery mildew on barley)

CCn1c(-c2ccc(F)cc2Cl)c(C2CCCCC2)ccc1=O [compound 176]
H (more than 50% control value): Test A control value class (Magnaporthe grisea; Blast on rice) | Test E control value class (Puccinia recondita; Brown rust on wheat) | Test F control value class (Phytophthora infestans; Late blight on tomato) | Test B control value class (Botrytis cinerea; Gray mold on tomato) | Test D control value class ([2]; Powdery mildew on barley) | Test C control value class (Alternaia brassicicola; [11])
L (50% or less control value): Test G control value class (Plasmopara viticola; 250 ppm spray) | Test H control value class ([1]; 250 ppm spray)

CC=Cc1cc(Cl)c(=O)n(CC)c1-c1ccc(F)cc1Cl [compound 299]
L (50% or less control value): Test A control value (Magnaporthe grisea; [4]) | Test F control value (Phytophthora infestans; [7])
H (more than 50% control value): Test G control value (Plasmopara viticola; [3]) | Test H control value [1, 5] | Test E control value (Puccinia recondita; [6]) | Test B control value (Botrytis cinerea; [8]) | Test D control value [2, 9] | Test C control value (Alternaia brassicicola; [10])

CCCC1=C(c2ccc(F)cc2Br)N(CC)C(=O)CC1 [compound 359]
L (50% or less control value): Test G control value (Plasmopara viticola; [3]) | Test A control value (Magnaporthe grisea; [4]) | Test H control value [1, 5] | Test E control value (Puccinia recondita; [6]) | Test F control value (Phytophthora infestans; [7]) | Test B control value (Botrytis cinerea; [8]) | Test C control value (Alternaia brassicicola; [10])
H (more than 50% control value): Test D control value [2, 9]
